According to ChEMBL document CHEMBL1134838, “Structure-activity relationships at monoamine transporters and muscarinic receptors for N-substituted-3alpha-(3'-chloro-, 4'-chloro-, and 4',4''-dichloro-substituted-diphenyl)methoxytropanes” (J Med Chem, 2001):
pKi: −log10 of the molar value.

Legend:
[1] = target: T1, Muscarinic acetylcholine receptor M1 (Rattus norvegicus, UniProt P08482); assay: Binding affinity for muscarinic m1 receptor was determined in vitro in rat brain using [3H]pirenzepine as radioligand.; format: tissue-based
T1 sequence (P08482 whole entry): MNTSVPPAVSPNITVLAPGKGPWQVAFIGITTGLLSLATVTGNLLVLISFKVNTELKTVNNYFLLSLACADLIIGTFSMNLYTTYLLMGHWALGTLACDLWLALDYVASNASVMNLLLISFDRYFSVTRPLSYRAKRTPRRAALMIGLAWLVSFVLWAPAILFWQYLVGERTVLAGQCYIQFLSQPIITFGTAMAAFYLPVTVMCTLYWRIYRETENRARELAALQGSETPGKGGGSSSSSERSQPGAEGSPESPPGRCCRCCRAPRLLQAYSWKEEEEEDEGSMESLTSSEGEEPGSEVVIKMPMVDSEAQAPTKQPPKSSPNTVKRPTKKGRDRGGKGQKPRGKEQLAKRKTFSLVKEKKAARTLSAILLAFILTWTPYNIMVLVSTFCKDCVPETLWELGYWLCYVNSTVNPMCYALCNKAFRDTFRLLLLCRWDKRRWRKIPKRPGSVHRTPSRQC

[2] = target: Norepinephrine transporter (Rattus norvegicus, UniProt Q9WTR4); assay: Binding affinity for norepinephrine transporter in rat brain using [3H]-nisoxatine as radioligand; format: tissue-based
[3] = target: Sodium-dependent dopamine transporter (Rattus norvegicus, UniProt P23977); assay: biochemical; format: tissue-based, Brain
Description: Binding affinity for dopamine transporter was determined in vitro in rat brain using [3H]WIN-35428 s radioligand

[4] = target: Sodium-dependent serotonin transporter (Rattus norvegicus, UniProt P31652); assay: Binding affinity for serotonin transporter was determined in vitro in rat brain using [3H]citalopram as radioligand.; format: tissue-based
Chain of Sodium-dependent serotonin transporter (P31652 whole entry): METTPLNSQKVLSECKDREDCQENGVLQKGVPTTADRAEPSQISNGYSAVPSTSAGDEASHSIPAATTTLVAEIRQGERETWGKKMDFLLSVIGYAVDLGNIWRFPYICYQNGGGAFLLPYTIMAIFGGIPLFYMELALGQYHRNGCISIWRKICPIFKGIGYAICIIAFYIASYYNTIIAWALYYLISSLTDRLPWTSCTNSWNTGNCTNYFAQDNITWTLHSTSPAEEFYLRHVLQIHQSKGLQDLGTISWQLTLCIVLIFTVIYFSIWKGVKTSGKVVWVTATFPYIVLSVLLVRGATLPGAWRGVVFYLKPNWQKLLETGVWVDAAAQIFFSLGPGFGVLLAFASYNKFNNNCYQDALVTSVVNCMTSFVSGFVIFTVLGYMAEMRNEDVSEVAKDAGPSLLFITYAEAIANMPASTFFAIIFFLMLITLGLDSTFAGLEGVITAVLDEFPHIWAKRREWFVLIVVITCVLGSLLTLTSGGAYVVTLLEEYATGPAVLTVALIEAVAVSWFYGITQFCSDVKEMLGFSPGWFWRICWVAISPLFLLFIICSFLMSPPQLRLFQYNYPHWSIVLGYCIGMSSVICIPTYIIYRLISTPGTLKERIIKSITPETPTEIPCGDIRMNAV

Chain of Norepinephrine transporter (Q9WTR4 whole entry): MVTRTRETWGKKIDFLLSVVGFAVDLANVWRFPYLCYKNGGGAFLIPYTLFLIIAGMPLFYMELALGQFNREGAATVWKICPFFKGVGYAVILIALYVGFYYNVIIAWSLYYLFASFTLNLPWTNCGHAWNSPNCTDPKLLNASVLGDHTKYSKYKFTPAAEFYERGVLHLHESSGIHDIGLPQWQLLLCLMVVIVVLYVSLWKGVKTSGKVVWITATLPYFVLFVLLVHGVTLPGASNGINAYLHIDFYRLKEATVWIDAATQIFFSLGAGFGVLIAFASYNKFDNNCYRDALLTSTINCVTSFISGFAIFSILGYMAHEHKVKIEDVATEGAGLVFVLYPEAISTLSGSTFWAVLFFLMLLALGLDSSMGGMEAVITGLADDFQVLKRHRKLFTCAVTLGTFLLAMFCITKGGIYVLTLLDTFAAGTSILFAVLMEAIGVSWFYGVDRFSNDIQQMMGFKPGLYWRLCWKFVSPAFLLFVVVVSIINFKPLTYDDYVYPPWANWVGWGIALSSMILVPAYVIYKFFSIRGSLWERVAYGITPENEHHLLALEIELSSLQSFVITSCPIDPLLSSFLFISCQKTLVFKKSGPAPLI
Chain of Sodium-dependent dopamine transporter (P23977 whole entry): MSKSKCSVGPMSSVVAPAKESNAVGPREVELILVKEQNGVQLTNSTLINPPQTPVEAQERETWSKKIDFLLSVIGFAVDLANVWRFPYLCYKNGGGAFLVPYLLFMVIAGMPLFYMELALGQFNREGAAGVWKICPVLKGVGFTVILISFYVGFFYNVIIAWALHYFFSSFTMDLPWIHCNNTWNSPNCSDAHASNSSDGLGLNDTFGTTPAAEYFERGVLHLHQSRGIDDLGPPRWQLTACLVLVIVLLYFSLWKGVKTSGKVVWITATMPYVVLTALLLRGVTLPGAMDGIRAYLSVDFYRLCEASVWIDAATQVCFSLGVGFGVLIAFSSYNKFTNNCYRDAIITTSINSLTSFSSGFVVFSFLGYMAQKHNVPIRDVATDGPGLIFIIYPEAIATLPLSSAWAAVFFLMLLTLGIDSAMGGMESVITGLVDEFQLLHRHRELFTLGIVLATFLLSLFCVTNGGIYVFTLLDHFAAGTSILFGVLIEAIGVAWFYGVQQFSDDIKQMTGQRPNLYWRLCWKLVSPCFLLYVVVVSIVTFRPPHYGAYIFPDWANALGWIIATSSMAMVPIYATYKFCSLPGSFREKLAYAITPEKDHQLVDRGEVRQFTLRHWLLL

SMILES: CCCCc1cccc(N2[C@@H]3CC[C@H]2C[C@H](OC(c2ccc(Cl)cc2)c2ccc(Cl)cc2)C3)c1
- pKi [1]: 5.43
- pKi [2]: 5.31
- pKi [3]: 7.07
- pKi [4]: 6.18

SMILES: CCCCc1cccc(N2[C@@H]3CC[C@H]2C[C@H](OC(c2ccccc2)c2ccc(Cl)cc2)C3)c1 (some centres undefined)
- pKi [1]: 5.84
- pKi [2]: 5.63
- pKi [3]: 7.27
- pKi [4]: 6.13

SMILES: CCCc1cccc(N2[C@H]3CC[C@]2(C)C[C@@H](OC(c2ccccc2)c2ccc(Cl)cc2)C3)c1 (some centres undefined)
- pKi [1]: 6.40
- pKi [2]: 4.99
- pKi [3]: 6.83
- pKi [4]: 6.52

SMILES: CCCc1cccc(N2[C@@H]3CC[C@H]2C[C@H](OC(c2ccccc2)c2cccc(Cl)c2)C3)c1 (some centres undefined)
- pKi [1]: 6.47
- pKi [2]: 5.74
- pKi [3]: 7.00
- pKi [4]: 6.37

SMILES: CCCc1cccc(N2[C@@H]3CC[C@H]2C[C@H](OC(c2ccc(Cl)cc2)c2ccc(Cl)cc2)C3)c1
- pKi [1]: 5.52
- pKi [2]: 4.70
- pKi [3]: 6.80
- pKi [4]: 6.23

SMILES: CN1[C@@H]2CC[C@H]1C[C@@H](OC(c1ccccc1)c1cccc(Cl)c1)C2 (some centres undefined)
- pKi [2]: 6.35
- pKi [4]: 6.59

SMILES: CN1C2CCC1CC(OC(c1ccccc1)c1ccc(Cl)cc1)C2 (centres undefined)
- pKi [1]: 8.10
- pKi [2]: 5.83
- pKi [4]: 5.29

SMILES: Clc1ccc(C(OC2CC3CCC(C2)N3)c2ccccc2)cc1 (centres undefined)
- pKi [1]: 7.02
- pKi [2]: 6.00
- pKi [3]: 7.43
- pKi [4]: 5.88

SMILES: Clc1ccc(C(OC2CC3CCC(C2)N3)c2ccc(Cl)cc2)cc1 (centres undefined)
- pKi [1]: 6.19
- pKi [2]: 5.22
- pKi [4]: 6.14

SMILES: Clc1ccc(C(OC2CC3CCC(C2)N3Cc2ccccc2)c2ccc(Cl)cc2)cc1 (centres undefined)
- pKi [1]: 5.06
- pKi [2]: 5.12
- pKi [3]: 6.40
- pKi [4]: 5.44

SMILES: CCCCc1cccc(N2C3CCC2CC(OC(c2ccccc2)c2cccc(Cl)c2)C3)c1 (centres undefined)
- pKi [1]: 6.25
- pKi [2]: 5.83
- pKi [3]: 6.82
- pKi [4]: 6.23

SMILES: Clc1cccc(C(OC2CC3CCC(C2)N3Cc2ccccc2)c2ccccc2)c1 (centres undefined)
- pKi [1]: 6.17
- pKi [2]: 5.19
- pKi [3]: 6.72
- pKi [4]: 5.77

SMILES: C=CCN1C2CCC1CC(OC(c1ccccc1)c1cccc(Cl)c1)C2 (centres undefined)
- pKi [1]: 7.16
- pKi [2]: 5.91
- pKi [3]: 7.47
- pKi [4]: 5.92

SMILES: Clc1ccc(C(OC2CC3CCC(C2)N3Cc2ccccc2)c2ccccc2)cc1 (centres undefined)
- pKi [1]: 5.59
- pKi [2]: 4.89
- pKi [3]: 6.44
- pKi [4]: 5.45

SMILES: C=CCN1C2CCC1CC(OC(c1ccccc1)c1ccc(Cl)cc1)C2 (centres undefined)
- pKi [1]: 6.90
- pKi [2]: 5.33
- pKi [3]: 7.07
- pKi [4]: 5.63

SMILES: C=CCN1C2CCC1CC(OC(c1ccc(Cl)cc1)c1ccc(Cl)cc1)C2 (centres undefined)
- pKi [1]: 6.90
- pKi [2]: 5.38
- pKi [3]: 7.26
- pKi [4]: 6.25

SMILES: Clc1cccc(C(OC2CC3CCC(C2)N3)c2ccccc2)c1 (centres undefined)
- pKi [1]: 7.04
- pKi [2]: 6.29
- pKi [3]: 7.58
- pKi [4]: 5.68
